Source: patent EP4745151A1, “FIBROBLAST ACTIVATION PROTEIN LIGAND AND USE THEREOF” (Jiangsu Hengrui Pharmaceuticals Co., Ltd., priority 2023, dated 2025)
Where two headings read alike, the source gives them in different places. Blank lines part the entries; values can stand above or below the compound they belong to. Numbered stars: 1 amine (or outer) side, 2 acyl side, 3 side chain; on linkers, the order of the positions; unused ones are H or OH. Bridge positions count the residues as written; N and C are the ends. Square brackets hold non-standard residues; d marks the D form. Peptide text beside a SMILES is read from it. * marks the point of attachment. TBMB(SCH2CH2NH-DOTA) = O=C(O)CN1CCN(CC(=O)O)CCN(CC(=O)NCCSCc2cc(C[*:1])cc(C[*:2])c2)CCN(CC(=O)O)CC1; X1 = O=C(O)CN1CCN(CC(=O)O)CCN(CC(=O)NCCSCc2cc(C[*:1])cc(C[*:2])c2)CC1; Phe(2-CF3) = N[C@@H](Cc1ccccc1C(F)(F)F)C(=O)O; Pro(trans-4-F) = O=C(O)[C@@H]1C[C@@H](F)CN1; Phe(3-F) = N[C@@H](Cc1cccc(F)c1)C(=O)O; Phe(4-F) = N[C@@H](Cc1ccc(F)cc1)C(=O)O; Phe(2-F) = N[C@@H](Cc1ccccc1F)C(=O)O; Hyp = O=C(O)[C@@H]1C[C@@H](O)CN1; Hexanoyl = CCCCCC(=O)*; Aib = CC(C)(N)C(=O)O

How the values were obtained:
[1] = test system: U-87 MG cells; conditions: mouse, in vivo; for Tumour/kidney: B-NDG, iv
[2] = biological target: T1, FAPα (Homo sapiens, UniProt Q12884); experiment: FAPα enzyme activity test; type: biochemical; conditions: substrate Z-Gly-Pro-AMC, 37°C
T1 sequence (Q12884 1-760): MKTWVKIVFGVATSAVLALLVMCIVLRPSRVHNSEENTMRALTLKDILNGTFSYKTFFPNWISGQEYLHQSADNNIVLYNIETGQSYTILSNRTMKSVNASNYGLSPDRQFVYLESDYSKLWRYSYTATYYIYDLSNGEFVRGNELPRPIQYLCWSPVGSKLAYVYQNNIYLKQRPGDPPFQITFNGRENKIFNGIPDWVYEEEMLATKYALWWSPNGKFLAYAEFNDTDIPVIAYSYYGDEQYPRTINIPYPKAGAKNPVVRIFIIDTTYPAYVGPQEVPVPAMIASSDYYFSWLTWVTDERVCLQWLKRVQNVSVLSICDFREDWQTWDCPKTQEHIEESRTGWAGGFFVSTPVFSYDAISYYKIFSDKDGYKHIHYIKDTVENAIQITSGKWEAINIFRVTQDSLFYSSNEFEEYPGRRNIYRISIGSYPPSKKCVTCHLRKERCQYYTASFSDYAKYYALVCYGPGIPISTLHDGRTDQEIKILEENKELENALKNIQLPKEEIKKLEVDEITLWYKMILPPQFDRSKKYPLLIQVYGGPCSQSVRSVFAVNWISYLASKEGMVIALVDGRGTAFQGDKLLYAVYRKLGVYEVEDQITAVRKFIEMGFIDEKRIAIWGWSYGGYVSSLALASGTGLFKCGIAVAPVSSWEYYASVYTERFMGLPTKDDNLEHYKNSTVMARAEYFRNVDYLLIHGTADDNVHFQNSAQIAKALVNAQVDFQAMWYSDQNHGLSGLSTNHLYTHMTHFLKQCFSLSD
Method: The substrate (Z-Gly-Pro-AMC) was diluted with DMSO to prepare a 0.5 mM stock solution. Before each experiment, the 0.5 mM stock solution was diluted with PBS to 50 µM for later use. The FAPα protein was diluted with PBS to 0.5 ng/µl for later use. […] The test compounds and positive control were subjected to a 5-fold serial dilution with PBS to obtain 8 gradients for later use, with the highest concentration being 10 µM, and the lowest concentration being […]. Test method: 85 µl of the FAPα dilution and 10 µl of the compound dilution were added to a microplate, uniformly mixed and incubated at 37°C for 10 min. Then, 5 µl of 50 µM substrate was added, uniformly mixed and incubated at 37°C for 10 min. The microplate was read on a microplate reader, with an excitation wavelength of 380 nm and an emission wavelength of 465 nm.

[3] = in vivo; conditions: B-NDG, mouse, iv, total radioactivity, Tumour/kidney

SMILES: CCCCCC(=O)N[C@H]1CSCc2cc(CSCCNC(=O)CN3CCN(CC(=O)O)CCN(CC(=O)O)CC3)cc(c2)CSC[C@@H](C(=O)O)NC(=O)[C@H](Cc2ccccc2)NC(=O)[C@H](CCC(N)=O)NC(=O)[C@H]([C@@H](C)O)NC(=O)[C@@H]2CCCN2C(=O)[C@@H]2CCCN2C1=O [Al^18F-NOTA-2286, reference compound]
- Tumour/kidney ([1]; 0.5 h): 2.57±0.09
- Tumour/kidney ([1]; 1.5 h): 11.24±1.79
- Tumour/kidney ([1]; 3 h): 10.06±1.60

SMILES: CCCCCC(=O)N[C@H]1CSCc2cc(CSCCNC(=O)CN3CCN(CC(=O)O)CCN(CC(=O)O)CCN(CC(=O)O)CC3)cc(c2)CSC[C@@H](C(=O)O)NC(=O)[C@H](Cc2ccccc2C(F)(F)F)NC(=O)[C@H](CCC(N)=O)NC(=O)[C@H]([C@@H](C)O)NC(=O)[C@@H]2C[C@@H](O)CN2C(=O)[C@@H]2CCCN2C(=O)C(C)(C)NC1=O [DOTA-09] (Hexanoyl-C[Aib]P[Hyp]TQ[Phe(2-CF3)]C-OH; linker 1-8 via TBMB(SCH2CH2NH-DOTA))
- IC50 [2]: 0.28 nM

SMILES: CCCCCC(=O)N[C@H]1CSCc2cc(CSCCNC(=O)CN3CCN(CC(=O)O)CCN(CC(=O)O)CCN(CC(=O)O)CC3)cc(c2)CSC[C@@H](C(=O)O)NC(=O)[C@H](Cc2ccccc2)NC(=O)[C@H](CCC(N)=O)NC(=O)[C@H]([C@@H](C)O)NC(=O)[C@@H]2CCCN2C(=O)[C@@H]2CCCN2C1=O [FAP-2286, reference compound]
- IC50 [2]: 11.7 nM

SMILES: CCCCCC(=O)N[C@H]1CSCc2cc(CSCCNC(=O)CN3CCN(CC(=O)O)CCN(CC(=O)O)CC3)cc(c2)CSC[C@@H](C(=O)O)NC(=O)[C@H](Cc2ccccc2)NC(=O)[C@H](CCC(N)=O)NC(=O)[C@H]([C@@H](C)O)NC(=O)[C@@H]2CCCN2C(=O)[C@@H]2CCCN2C1=O [NOTA-2286, reference compound]
- IC50 [2]: 0.59 nM

SMILES: CCCCCC(=O)N[C@H]1CSCc2cc(CSCCNC(=O)CN3CCN(CC(=O)O)CCN(CC(=O)O)CCN(CC(=O)O)CC3)cc(c2)CSC[C@@H](C(=O)O)NC(=O)[C@H](Cc2ccccc2C(F)(F)F)NC(=O)[C@H](CCC(N)=O)NC(=O)[C@H]([C@@H](C)O)NC(=O)[C@@H]2C[C@@H](O)CN2C(=O)[C@@H]2CCCN2C(=O)C(C)(C)NC1=O [^68Ga-DOTA-09, metal not drawn] (Hexanoyl-C[Aib]P[Hyp]TQ[Phe(2-CF3)]C-OH; linker 1-8 via TBMB(SCH2CH2NH-DOTA))
- tissue to tissue ratio at 0.5 h [3]: 2.81 ± 0.21
- tissue to tissue ratio at 1.5 h [3]: 5.34 ± 0.92
- tumour uptake compared with control [1]: significantly higher
- tumour/kidney ratio compared with control [1]: significantly higher
- tumour/kidney uptake ratio compared with control [1]: significantly higher

SMILES: CCCCCC(=O)N[C@H]1CSCc2cc(CSCCNC(=O)CN3CCN(CC(=O)O)CCN(CC(=O)O)CCN(CC(=O)O)CC3)cc(c2)CSC[C@@H](C(=O)O)NC(=O)[C@H](Cc2ccccc2)NC(=O)[C@H](CCC(N)=O)NC(=O)[C@H]([C@@H](C)O)NC(=O)[C@@H]2CCCN2C(=O)[C@@H]2CCCN2C1=O [^68Ga-FAP-2286, metal not drawn]
- tissue to tissue ratio at 1 h [3]: 1.56 ± 0.11
- tissue to tissue ratio at 3 h [3]: 0.87 ± 0.14

SMILES: CCCCCC(=O)N[C@H]1CSCc2cc(CSCCNC(=O)CN3CCN(CC(=O)O)CCN(CC(=O)O)CC3)cc(c2)CSC[C@@H](C(=O)O)NC(=O)[C@H](Cc2ccccc2)NC(=O)[C@H](CCC(N)=O)NC(=O)[C@H]([C@@H](C)O)NC(=O)[C@@H]2CCCN2C(=O)[C@@H]2CCCN2C1=O [^68Ga-NOTA-2286, metal not drawn, reference compound]
- tissue to tissue ratio at 0.5 h [3]: 1.59 ± 0.55
- Tumour/kidney ([1]; 1.5 h): 1.77±0.31
- Tumour/kidney ([1]; 3 h): 2.43±1.04

Continued, values first:

- IC50 [2]: 1.16 nM
SMILES: CCCCCC(=O)N[C@H]1CSCc2cc(CSCCNC(=O)CN3CCN(CC(=O)O)CCN(CC(=O)O)CCN(CC(=O)O)CC3)cc(c2)CSC[C@@H](C(=O)O)NC(=O)[C@H](Cc2ccccc2)NC(=O)[C@H](CCC(N)=O)NC(=O)[C@H]([C@@H](C)O)NC(=O)[C@@H]2C[C@@H](O)CN2C(=O)[C@@H]2CCCN2C(=O)C(C)(C)NC1=O [DOTA-05] (Hexanoyl-C[Aib]P[Hyp]TQFC-OH; linker 1-8 via TBMB(SCH2CH2NH-DOTA))

- IC50 [2]: 0.93 nM
SMILES: CCCCCC(=O)N[C@H]1CSCc2cc(CSCCNC(=O)CN3CCN(CC(=O)O)CCN(CC(=O)O)CCN(CC(=O)O)CC3)cc(c2)CSC[C@@H](C(=O)O)NC(=O)[C@H](Cc2ccccc2F)NC(=O)[C@H](CCC(N)=O)NC(=O)[C@H]([C@@H](C)O)NC(=O)[C@@H]2C[C@@H](O)CN2C(=O)[C@@H]2CCCN2C(=O)C(C)(C)NC1=O [DOTA-06] (Hexanoyl-C[Aib]P[Hyp]TQ[Phe(2-F)]C-OH; linker 1-8 via TBMB(SCH2CH2NH-DOTA))

- IC50 [2]: 1.5 nM
SMILES: CCCCCC(=O)N[C@H]1CSCc2cc(CSCCNC(=O)CN3CCN(CC(=O)O)CCN(CC(=O)O)CCN(CC(=O)O)CC3)cc(c2)CSC[C@@H](C(=O)O)NC(=O)[C@H](Cc2cccc(F)c2)NC(=O)[C@H](CCC(N)=O)NC(=O)[C@H]([C@@H](C)O)NC(=O)[C@@H]2C[C@@H](O)CN2C(=O)[C@@H]2CCCN2C(=O)C(C)(C)NC1=O [DOTA-07] (Hexanoyl-C[Aib]P[Hyp]TQ[Phe(3-F)]C-OH; linker 1-8 via TBMB(SCH2CH2NH-DOTA))

- IC50 [2]: 0.53 nM
SMILES: CCCCCC(=O)N[C@H]1CSCc2cc(CSCCNC(=O)CN3CCN(CC(=O)O)CCN(CC(=O)O)CCN(CC(=O)O)CC3)cc(c2)CSC[C@@H](C(=O)O)NC(=O)[C@H](Cc2ccc(F)cc2)NC(=O)[C@H](CCC(N)=O)NC(=O)[C@H]([C@@H](C)O)NC(=O)[C@@H]2C[C@@H](O)CN2C(=O)[C@@H]2CCCN2C(=O)C(C)(C)NC1=O [DOTA-08] (Hexanoyl-C[Aib]P[Hyp]TQ[Phe(4-F)]C-OH; linker 1-8 via TBMB(SCH2CH2NH-DOTA))

- IC50 [2]: 1.08 nM
SMILES: CCCCCC(=O)N[C@H]1CSCc2cc(CSCCNC(=O)CN3CCN(CC(=O)O)CCN(CC(=O)O)CCN(CC(=O)O)CC3)cc(c2)CSC[C@@H](C(=O)O)NC(=O)[C@H](Cc2ccccc2)NC(=O)[C@H](CCC(N)=O)NC(=O)[C@H]([C@@H](C)O)NC(=O)[C@@H]2C[C@@H](F)CN2C(=O)[C@@H]2CCCN2C(=O)C(C)(C)NC1=O [DOTA-12] (Hexanoyl-C[Aib]P[Pro(trans-4-F)]TQFC-OH; linker 1-8 via TBMB(SCH2CH2NH-DOTA))

- IC50 [2]: 1.09 nM
SMILES: CCCCCC(=O)N[C@H]1CSCc2cc(CSCCNC(=O)CN3CCN(CC(=O)O)CCN(CC(=O)O)CCN(CC(=O)O)CC3)cc(c2)CSC[C@@H](C(=O)O)NC(=O)[C@H](Cc2ccccc2F)NC(=O)[C@H](CCC(N)=O)NC(=O)[C@H]([C@@H](C)O)NC(=O)[C@@H]2C[C@@H](F)CN2C(=O)[C@@H]2CCCN2C(=O)C(C)(C)NC1=O [DOTA-13] (Hexanoyl-C[Aib]P[Pro(trans-4-F)]TQ[Phe(2-F)]C-OH; linker 1-8 via TBMB(SCH2CH2NH-DOTA))

- IC50 [2]: 0.45 nM
SMILES: CCCCCC(=O)N[C@H]1CSCc2cc(CSCCNC(=O)CN3CCN(CC(=O)O)CCN(CC(=O)O)CC3)cc(c2)CSC[C@@H](C(=O)O)NC(=O)[C@H](Cc2ccccc2)NC(=O)[C@H](CCC(N)=O)NC(=O)[C@H]([C@@H](C)O)NC(=O)[C@@H]2C[C@@H](O)CN2C(=O)[C@@H]2CCCN2C(=O)C(C)(C)NC1=O [NOTA-05] (Hexanoyl-C[Aib]P[Hyp]TQFC-OH; linker 1-8 via X1)

- IC50 [2]: 0.088 nM
SMILES: CCCCCC(=O)N[C@H]1CSCc2cc(CSCCNC(=O)CN3CCN(CC(=O)O)CCN(CC(=O)O)CC3)cc(c2)CSC[C@@H](C(=O)O)NC(=O)[C@H](Cc2ccccc2F)NC(=O)[C@H](CCC(N)=O)NC(=O)[C@H]([C@@H](C)O)NC(=O)[C@@H]2C[C@@H](O)CN2C(=O)[C@@H]2CCCN2C(=O)C(C)(C)NC1=O [NOTA-06] (Hexanoyl-C[Aib]P[Hyp]TQ[Phe(2-F)]C-OH; linker 1-8 via X1)
